Laboratory results reported in patent US8361987B2, “DNA vaccines encoding heat shock proteins” (priority 2002, dated 2013).

What was measured:
[1] = system: adjuvant arthritis (AA); test: Adoptive transfer of Con A-activated splenocytes from peptide-vaccinated rats, then AA induction in recipients; assay type: in vivo, Lewis rats; settings: 5×10^7 Con A-activated splenocytes of peptide-vaccinated donors iv; AA induced three days later
Procedure: Spleen cells were prepared from peptide-vaccinated rats 26 days after the induction of AA. The splenocytes (10^7 cells per ml) were activated with 2.5 μg/ml of Con A for 48 hr at 37° C. in a humidified atmosphere of 5% CO2. The cells were washed with sterile PBS and injected iv into naïve rats (5×10^7 cells per rat). Three days after the transfer of the splenocytes, AA was induced.
To learn whether the protection triggered by Hu3-vaccination could be adoptively transferred by activated T-cells, splenocytes prepared from Hu3 vaccinated rats were stimulated in vitro for 2 days with the T-cell mitogen Con A, washed, and injected iv (5×10^7 cells per rat) into naïve rats. Only the recipients of cells taken from Hu3-vaccinated rats were protected against the subsequent induction of AA (FIGS. 4A and 4B). […] Thus, inhibition of AA by vaccination with Hu3 could be adoptively transferred by activated T-cells.

[2] = system: lymph node cells (LNC); test: T-cell proliferation ([methyl-3H]-thymidine incorporation, stimulation index) of cells from vaccinated rats; assay type: cell-based, Lewis rats; settings: for T-cell response to the immunizing peptide: LNC of peptide-vaccinated rats after AA induction
Procedure: Popliteal and inguinal lymph node cells (LNC) taken 26 days after the induction of AA were cultured in quadruplicates in 200 μl round bottom microtiter wells (Costar Corp., Cambridge, USA) at 2×10^5 cells per well with or without antigen. The T-cell mitogen Concanavalin A (Con A) was used as a positive control for T-cell proliferation. Cultures were incubated for 96 hrs at 37° C. in a humidified atmosphere of 5% CO2. T-cell responses were detected by the incorporation of [methyl-^3H]-thymidine (Amersham, Buckinghamshire, UK; 1 μCi/well), which was added to the wells for the last 18 hours. The stimulation index (SI) was computed as the ratio of the mean c.p.m. of antigen- or mitogen-containing wells to control wells cultured with medium alone.

[3] = system: adjuvant arthritis (AA); test: Adjuvant arthritis (AA) induction and assessment after DNA or peptide vaccination; assay type: in vivo, Lewis rats
Procedure: Plasmid DNA was prepared in large scale and injected after pretreatment with cardiotoxin (Sigma, Rehovot, Israel). Briefly, rats were vaccinated in the quadriceps three times (on days −40, −26 −12 relative to AA induction) with 150 μg of pcDNA3, pI, pII, pIII, pIV or pV. Endotoxin levels were checked by Limulus Amoebocyte Lysate and found always to be under acceptable levels for in vivo use (less than 0.02 EU/μg DNA). AA was induced 12 days after the last injection of DNA. The empty vector pcDNA3 was used as a DNA vaccination control.
AA was induced using 1 mg per rat of heat-killed Mt strain H37Ra (Difco). The day of AA induction was designated as day 0, and disease severity was assessed by direct observation of all 4 limbs in each animal. A relative score between 0 and 4 was assigned to each limb, based on the degree of joint inflammation, redness and deformity; thus the maximum possible score for an individual animal was 16. Arthritis was also quantified by measuring hind limb diameter with a caliper. Measurements were taken on the day of AA induction and 26 days later, and they are presented as the mean±SEM of the difference between the two values. The person who scored the disease was blinded to the identity of the groups. […]

[4] = system: IFNγ, IL-10 and TGFβ1 secretion by LNC; test: Cytokine assays (ELISA of culture supernatants after 72 hrs antigen stimulation); assay type: cell-based, Lewis rats
Source text: Supernatants were collected after 72 hrs of stimulation with each of the antigens tested. Rat IL-10 and IFNγ were quantitated in culture supernatants by enzyme-linked immunosorbent assay (ELISA) using Pharmingen's OPTEIA kit (Pharmingen, San Diego, USA). Rat TGFβ1 was quantified using the TGFβ1 Emax® ImmunoAssay System (Promega, Madison, USA) according to the manufacturer's instructions. Cytokine levels in supernatants are expressed as pg/ml based on calibration curves constructed using recombinant cytokines as standards. The lower limits of detection for the experiments described in this paper were 15 pg/ml for TGFβ1, IL-10 and IFNγ.

[5] = LNC day 26 after AA induction, 72 hr
[6] = LNC of peptide-vaccinated rats, day 26 after AA induction

Question: “AYDEEARRGLERGLNALADA [Mt3, mycobacterial HSP65 peptide, counterpart of Hu3, reference compound]” was tested. Which “protection of recipients against subsequent induction of AA” value [1] did it give?
Answer: Its value is “No protection”.

Question: And the “T-cell response to the immunizing peptide” value (“T-cell response” below) [2]?
Answer: Its value is “significant and specific T-cell responses”.

Question: Which “T-cell response” value [2] does the source give for “EEIAQVATISANGDKEIGNI [Hu12, human HSP60 peptide 166-185, control peptide, reference compound]” here?
Answer: Its value is “significant and specific T-cell responses”.

Question: What about the “T-cell response” value ([2]; listed as HU12) of the same sequence?
Answer: The value was “proliferated”.

Question: What does the source list for “KFGADARALMLQGVDLLADA (listed as Homo sapiens) [Hu3]”?
Answer: protection of recipients against subsequent induction of AA [1]: protected; T-cell proliferative responses to both self- and mycobacterial antigens ([2]; LNC day 26 after AA induction): up-regulation; proliferative response to HSP60 ([2]; LNC day 26 after AA induction): induction of a specific response; proliferative response to control peptide Hu12 ([2]; LNC day 26 after AA induction): no responses; proliferative response to Hu3 ([2]; LNC day 26 after AA induction, stimulated in vitro with Hu3): recognized; T-cell proliferative responses to mycobacterial antigens (PPD, HSP65, Mt176-190) ([2]; LNC day 26 after AA induction, relative to controls): up-regulated; T-cell response to the immunizing peptide [2]: significant and specific T-cell responses; ankle swelling ([3]; peptide vaccination 100 μg in IFA day −7, day 26 after AA induction, vs 32.2±3.5 in PBS/IFA, p=0.02): 14.2±4.7; AA disease severity after peptide vaccination ([3]; single i.p. dose of 100 μg peptide in IFA on day −7, compared to non-immunized rats or PBS, Hu12 or Mt3): significantly decreased disease; IFNγ secretion upon stimulation with mycobacterial antigens (PPD, HSP65, Mt176-190) [4, 5]: reduction; IL-10 secretion upon stimulation with mycobacterial antigens (PPD, HSP65, Mt176-190) [4, 5]: increase; TGFβ1 secretion upon stimulation with mycobacterial antigens (PPD, HSP65, Mt176-190) [4, 5]: increase; secretion of IFNγ, stimulated with Hu3 ([4]; LNC day 26 after AA induction, relative to respective controls (FIG. 12B)): increased; cytokine response to whole HSP60 [4, 6]: predominantly TFGβ1; cytokines secreted in response to Hu3 [4, 6]: secreted IFNγ, IL-10 and TGFβ1
